Experimental findings from patent publication US12516056B2, “Compounds for inhibition of janus kinase 1” (MANKIND PHARMA LTD., priority 2019, dated 2026) are described below.

Counter-ions that a name gives are not always drawn.

In assay [1] the target is T1, Recombinant TYK2 (Homo sapiens, UniProt P29597).
T1 construct: purchased Carna Biosciences
Kind of assay: JAK biochemical assay (LANCE Ultra TR-FRET), TYK2. The settings on record: recombinant TYK2, TR-FRET; read-out: Biochemical Assay (μM) TYK2. The method, then: (§1) Recombinant JAK1, JAK2, JAK3 and TYK2 (Carna Biosciences) were used to develop biochemical assays in 50 mM HEPES pH 7.5, 1 mM EGTA, 10 mM MgCl2, 2 mM DTT and 0.01% Tween-20. […] The intensity of the light emission is proportional to the level of ULight substrate phosphorylation. Compounds which interfere with JAK enzyme activity show a lesser substrate phosphorylation and values are projected in terms of % inhibition in comparison to vehicle control.
A general note: TR-FRET usually uses a lanthanide donor and a delayed reading to cut background.

In assay [2] the target is T2, Recombinant JAK2 (Homo sapiens, UniProt O60674).
T2 construct: purchased Carna Biosciences
Nature of the assay: JAK biochemical assay (LANCE Ultra TR-FRET), JAK2. The settings on record: recombinant JAK2, TR-FRET; read-out: Biochemical Assay (μM) JAK2. The method, then:
as §1

Assay [3] concerns the target T3, Recombinant JAK1 (Homo sapiens, UniProt P23458).
T3 construct: purchased Carna Biosciences
Kind of assay: JAK biochemical assay (LANCE Ultra TR-FRET), JAK1. To be noted: recombinant JAK1, TR-FRET; read-out: Biochemical Assay (μM) JAK1. The method, then: as §1

In assay [4] the target is T4, Recombinant JAK3 (Homo sapiens, UniProt P52333).
T4 construct: purchased Carna Biosciences
T4 sequence (P52333 1-1124): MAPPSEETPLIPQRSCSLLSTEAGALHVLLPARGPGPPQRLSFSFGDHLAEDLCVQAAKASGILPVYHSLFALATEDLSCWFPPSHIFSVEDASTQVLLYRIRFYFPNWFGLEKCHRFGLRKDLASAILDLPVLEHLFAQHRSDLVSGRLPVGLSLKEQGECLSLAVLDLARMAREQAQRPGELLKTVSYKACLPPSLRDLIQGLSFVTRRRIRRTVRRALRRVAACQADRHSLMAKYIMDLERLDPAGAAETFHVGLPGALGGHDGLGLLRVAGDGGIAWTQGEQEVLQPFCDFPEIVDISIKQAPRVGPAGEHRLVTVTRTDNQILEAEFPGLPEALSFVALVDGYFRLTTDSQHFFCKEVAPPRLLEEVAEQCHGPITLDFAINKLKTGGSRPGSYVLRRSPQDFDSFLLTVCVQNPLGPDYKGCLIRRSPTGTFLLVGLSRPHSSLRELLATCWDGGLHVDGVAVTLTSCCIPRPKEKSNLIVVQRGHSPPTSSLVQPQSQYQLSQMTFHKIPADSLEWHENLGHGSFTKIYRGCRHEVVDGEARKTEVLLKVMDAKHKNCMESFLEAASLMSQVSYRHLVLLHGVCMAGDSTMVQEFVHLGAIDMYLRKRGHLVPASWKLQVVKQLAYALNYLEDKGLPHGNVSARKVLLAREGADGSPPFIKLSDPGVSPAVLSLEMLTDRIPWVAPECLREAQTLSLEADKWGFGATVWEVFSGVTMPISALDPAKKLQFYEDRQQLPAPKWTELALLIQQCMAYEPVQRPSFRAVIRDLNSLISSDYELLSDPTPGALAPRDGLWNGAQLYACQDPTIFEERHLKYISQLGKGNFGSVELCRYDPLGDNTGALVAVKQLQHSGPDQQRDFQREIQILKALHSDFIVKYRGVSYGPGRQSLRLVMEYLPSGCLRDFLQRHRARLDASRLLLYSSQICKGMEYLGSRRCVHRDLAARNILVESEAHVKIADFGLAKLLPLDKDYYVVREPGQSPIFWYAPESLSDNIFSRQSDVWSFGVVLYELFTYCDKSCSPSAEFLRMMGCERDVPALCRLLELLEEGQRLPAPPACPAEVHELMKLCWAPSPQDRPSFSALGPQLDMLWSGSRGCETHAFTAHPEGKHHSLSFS
Kind of assay: JAK biochemical assay (LANCE Ultra TR-FRET), JAK3. To be noted: recombinant JAK3, TR-FRET; read-out: Biochemical Assay (μM) JAK3. How it is done: as §1

T2 sequence (O60674 whole entry): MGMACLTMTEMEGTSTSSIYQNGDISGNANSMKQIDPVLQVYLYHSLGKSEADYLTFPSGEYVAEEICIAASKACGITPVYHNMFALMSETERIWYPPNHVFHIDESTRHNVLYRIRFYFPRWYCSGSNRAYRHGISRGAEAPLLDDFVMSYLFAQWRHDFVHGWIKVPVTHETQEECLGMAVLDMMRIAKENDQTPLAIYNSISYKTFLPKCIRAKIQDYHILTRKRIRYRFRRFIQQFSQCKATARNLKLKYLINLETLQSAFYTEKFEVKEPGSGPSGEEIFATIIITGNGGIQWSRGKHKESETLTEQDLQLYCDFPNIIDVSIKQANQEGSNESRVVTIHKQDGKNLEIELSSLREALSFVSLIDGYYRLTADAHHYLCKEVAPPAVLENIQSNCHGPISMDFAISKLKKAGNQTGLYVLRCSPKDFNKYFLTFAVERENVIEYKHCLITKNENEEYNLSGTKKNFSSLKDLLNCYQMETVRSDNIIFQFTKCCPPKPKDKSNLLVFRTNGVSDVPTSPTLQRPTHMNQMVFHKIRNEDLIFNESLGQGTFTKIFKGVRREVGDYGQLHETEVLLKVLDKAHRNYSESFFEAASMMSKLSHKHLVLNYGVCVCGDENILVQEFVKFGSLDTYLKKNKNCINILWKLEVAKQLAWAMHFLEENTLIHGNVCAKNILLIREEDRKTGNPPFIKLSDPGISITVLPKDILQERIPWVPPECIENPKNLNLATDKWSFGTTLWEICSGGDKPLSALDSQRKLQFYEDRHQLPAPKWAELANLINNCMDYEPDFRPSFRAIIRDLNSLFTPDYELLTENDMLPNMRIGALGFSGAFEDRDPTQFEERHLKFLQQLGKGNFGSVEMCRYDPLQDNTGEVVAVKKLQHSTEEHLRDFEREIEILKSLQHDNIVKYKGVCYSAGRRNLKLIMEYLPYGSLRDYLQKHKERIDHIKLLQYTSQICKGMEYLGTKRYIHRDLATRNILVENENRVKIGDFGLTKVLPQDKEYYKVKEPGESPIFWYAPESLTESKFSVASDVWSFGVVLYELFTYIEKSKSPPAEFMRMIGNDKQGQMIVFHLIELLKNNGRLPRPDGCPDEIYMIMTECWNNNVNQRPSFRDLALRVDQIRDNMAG
T3 sequence (P23458 whole entry): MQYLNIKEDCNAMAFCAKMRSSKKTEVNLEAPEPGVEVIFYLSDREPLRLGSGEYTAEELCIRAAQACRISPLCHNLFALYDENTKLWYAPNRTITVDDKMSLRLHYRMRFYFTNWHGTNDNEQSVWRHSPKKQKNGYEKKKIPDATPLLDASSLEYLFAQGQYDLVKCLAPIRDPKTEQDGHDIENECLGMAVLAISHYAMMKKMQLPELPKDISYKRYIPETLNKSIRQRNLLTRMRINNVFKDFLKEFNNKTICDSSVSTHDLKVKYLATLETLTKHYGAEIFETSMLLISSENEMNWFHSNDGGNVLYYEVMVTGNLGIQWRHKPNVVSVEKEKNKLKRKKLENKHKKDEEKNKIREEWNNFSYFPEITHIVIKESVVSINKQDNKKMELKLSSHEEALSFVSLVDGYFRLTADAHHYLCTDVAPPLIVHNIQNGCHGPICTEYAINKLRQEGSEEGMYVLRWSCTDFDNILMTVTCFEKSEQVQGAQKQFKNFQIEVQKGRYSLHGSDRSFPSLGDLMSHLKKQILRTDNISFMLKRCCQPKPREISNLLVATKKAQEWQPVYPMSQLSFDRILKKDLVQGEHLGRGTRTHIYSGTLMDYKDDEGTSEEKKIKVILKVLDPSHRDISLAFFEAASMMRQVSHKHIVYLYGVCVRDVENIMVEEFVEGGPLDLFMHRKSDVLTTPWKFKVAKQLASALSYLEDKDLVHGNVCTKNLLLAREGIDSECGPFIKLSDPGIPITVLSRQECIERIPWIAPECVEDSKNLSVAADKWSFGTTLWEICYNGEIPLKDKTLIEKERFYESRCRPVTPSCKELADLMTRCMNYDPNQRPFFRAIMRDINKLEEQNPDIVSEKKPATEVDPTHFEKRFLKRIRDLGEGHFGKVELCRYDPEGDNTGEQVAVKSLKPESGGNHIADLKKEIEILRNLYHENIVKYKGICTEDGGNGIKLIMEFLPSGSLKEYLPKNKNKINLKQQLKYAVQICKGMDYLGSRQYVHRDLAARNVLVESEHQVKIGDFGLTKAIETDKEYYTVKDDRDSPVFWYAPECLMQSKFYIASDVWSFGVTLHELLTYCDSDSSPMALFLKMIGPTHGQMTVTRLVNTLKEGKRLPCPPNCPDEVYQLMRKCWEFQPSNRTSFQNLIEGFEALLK
T1 sequence (P29597 whole entry): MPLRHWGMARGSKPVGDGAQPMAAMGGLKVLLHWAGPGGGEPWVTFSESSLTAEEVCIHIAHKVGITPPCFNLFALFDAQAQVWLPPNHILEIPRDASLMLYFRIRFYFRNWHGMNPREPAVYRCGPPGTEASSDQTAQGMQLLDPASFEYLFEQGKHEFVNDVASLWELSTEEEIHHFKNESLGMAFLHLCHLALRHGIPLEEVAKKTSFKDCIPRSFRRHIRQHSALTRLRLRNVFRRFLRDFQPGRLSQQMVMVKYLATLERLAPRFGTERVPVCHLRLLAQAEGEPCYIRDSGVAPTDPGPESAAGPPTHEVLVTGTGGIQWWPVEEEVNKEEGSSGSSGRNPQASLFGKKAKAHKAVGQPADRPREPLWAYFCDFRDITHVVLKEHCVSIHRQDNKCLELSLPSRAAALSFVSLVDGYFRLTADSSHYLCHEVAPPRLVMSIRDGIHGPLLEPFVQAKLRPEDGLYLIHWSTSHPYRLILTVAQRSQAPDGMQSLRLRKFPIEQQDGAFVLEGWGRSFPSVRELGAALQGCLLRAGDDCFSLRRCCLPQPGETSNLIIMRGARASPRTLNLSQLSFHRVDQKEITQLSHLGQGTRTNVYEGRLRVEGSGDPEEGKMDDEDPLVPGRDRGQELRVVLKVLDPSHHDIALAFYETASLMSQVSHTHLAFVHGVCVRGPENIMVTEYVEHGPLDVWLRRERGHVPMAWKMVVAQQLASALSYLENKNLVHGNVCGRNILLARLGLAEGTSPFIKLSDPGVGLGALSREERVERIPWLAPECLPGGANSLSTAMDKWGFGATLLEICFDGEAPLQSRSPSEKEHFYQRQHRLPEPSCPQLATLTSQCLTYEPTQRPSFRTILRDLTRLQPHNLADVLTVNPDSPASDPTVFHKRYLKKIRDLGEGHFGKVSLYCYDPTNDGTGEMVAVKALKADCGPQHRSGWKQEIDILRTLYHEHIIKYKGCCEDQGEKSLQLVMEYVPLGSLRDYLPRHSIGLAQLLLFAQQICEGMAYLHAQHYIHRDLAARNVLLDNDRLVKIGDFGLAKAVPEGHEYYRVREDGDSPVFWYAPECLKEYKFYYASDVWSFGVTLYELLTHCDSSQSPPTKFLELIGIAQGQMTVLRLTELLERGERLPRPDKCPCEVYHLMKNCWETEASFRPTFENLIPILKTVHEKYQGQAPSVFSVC

With `CS(=O)(=O)CCC(c1ccc(-n2cc(-c3ccnc4[nH]c(=O)[nH]c34)cn2)nc1)C(F)(F)F` (stereo not drawn) [Example 1189, 7-(1-(5-(1,1,1-trifluoro-4-(methylsulfonyl)butan-2-yl)pyridin-2-yl)-1H-pyrazol-4-yl)-1H-imidazo[4,5-b]pyridin-2(3H)-one], the IC50 in assay [1] is more than 1 µM; in assay [2] it was more than 1 µM; in assay [3] it was more than 0.5 µM; in assay [4], more than 1 µM.

`FC(F)(F)C(CN1CCOCC1)c1ccc(-n2cc(-c3ccnc4[nH]cnc34)cn2)nc1` (stereo not drawn) [Example 1206, 7-(1-(5-(1,1,1-trifluoro-3-morpholinopropan-2-yl)pyridin-2-yl)-1H-pyrazol-4-yl)-3H-imidazo[4,5-b]pyridine]: the IC50 in assay [1] was more than 1 µM; in assay [2], more than 0.1 µM; in assay [3], more than 0.1 µM; in assay [4], more than 0.5 µM.

In the case of `CS(=O)(=O)CCC(c1cccc(-n2cc(-c3ccnc4[nH]cnc34)cn2)n1)C(F)(F)F` (stereo not drawn) [Example 1175, 7-(1-(6-(1,1,1-trifluoro-4-(methylsulfonyl)butan-2-yl)pyridin-2-yl)-1H-pyrazol-4-yl)-3H-imidazo[4,5-b]pyridine], the IC50 in assay [1], in assay [2], in assay [3] and in assay [4] was more than 1 µM in each case.

Regarding `N#CCC1CCN(C(=O)n2cc(-c3ccnc4[nH]c(=O)[nH]c34)cn2)C1` (stereo not drawn) [Example 1057, 2-(1-(4-(2-oxo-2,3-dihydro-1H-imidazo[4,5-b]pyridin-7-yl)-1H-pyrazole-1-carbonyl)pyrrolidin-3-yl)acetonitrile], the IC50 in assay [1] is more than 1 µM; in assay [2], more than 0.5 µM; in assay [3], more than 0.5 µM; in assay [4], more than 0.5 µM.

Take `FC(F)(F)C(CCNC1CCCCC1)c1ccc(-n2cc(-c3ccnc4[nH]cnc34)cn2)nc1` (stereo not drawn) [Example 1199, N-(3-(6-(4-(3H-imidazo[4,5-b]pyridin-7-yl)-1H-pyrazol-1-yl)pyridin-3-yl)-4,4,4-trifluorobutyl)cyclohexanamine]: the IC50 in assay [1] was more than 0.5 µM; in assay [2] it was more than 0.1 µM; in assay [3] it was less than 0.1 µM; in assay [4], less than 0.1 µM.

For `O=C(NCC(F)(F)F)Nc1ccc(-c2ccnc3[nH]cnc23)cc1` [Example 1010, 1-(4-(3H-imidazo[4,5-b]pyridin-7-yl)phenyl)-3-(2,2,2-trifluoroethyl)urea], the IC50 in assay [1] is more than 1 µM; in assay [2], less than 0.5 µM; in assay [3], less than 0.5 µM; in assay [4], more than 0.5 µM.

Consider `O=C(NCC(F)(F)F)n1cc(-c2ccnc3[nH]c(C4CC4)nc23)cn1` [Example 1096, 4-(2-cyclopropyl-3H-imidazo[4,5-b]pyridin-7-yl)-N-(2,2,2-trifluoroethyl)-1H-pyrazole-1-carboxamide], for which the IC50 in assay [1] was more than 10 µM; in assay [2] it was more than 1 µM; in assay [3], more than 10 µM; in assay [4], more than 1 µM.

In the case of `CC(CCS(C)(=O)=O)c1ccc(-n2cc(-c3ccnc4[nH]cnc34)cn2)nc1` (stereo not drawn) [Example 1163, 7-(1-(5-(4-(methylsulfonyl)butan-2-yl)pyridin-2-yl)-1H-pyrazol-4-yl)-3H-imidazo[4,5-b]pyridine], the IC50 in assay [1] is more than 1 µM; in assay [2], more than 0.5 µM; in assay [3], more than 0.5 µM; in assay [4] it was more than 0.5 µM.

On to `CS(=O)(=O)CCC(c1ccnc(-n2cc(-c3ccnc4[nH]cnc34)cn2)c1)C(F)(F)F` (stereo not drawn) [Example 1176, 7-(1-(4-(1,1,1-trifluoro-4-(methylsulfonyl)butan-2-yl)pyridin-2-yl)-1H-pyrazol-4-yl)-3H-imidazo[4,5-b]pyridine], for which the IC50 in assay [1], in assay [2], in assay [3] and in assay [4] was more than 1 µM throughout.

Turning to `N#CC1CN(C(=O)CNC(=O)n2cc(-c3ccnc4[nH]c(=O)[nH]c34)cn2)C1` [Example 1059, N-(2-(3-cyanoazetidin-1-yl)-2-oxoethyl)-4-(2-oxo-2,3-dihydro-1H-imidazo[4,5-b]pyridin-7-yl)-1H-pyrazole-1-carboxamide], the IC50 is more than 10 µM in assay [1], more than 1 µM in assay [2], more than 1 µM in assay [3] and more than 10 µM in assay [4].

For the molecule `CS(=O)(=O)CCC(c1ccc(-n2cc(-c3ccnc4[nH]cnc34)cn2)nc1)C1COC1` (stereo not drawn) [Example 1160, 7-(1-(5-(3-(methylsulfonyl)-1-(oxetan-3-yl)propyl)pyridin-2-yl)-1H-pyrazol-4-yl)-3H-imidazo[4,5-b]pyridine], the IC50 in assay [1] was more than 1 µM; in assay [2], more than 0.5 µM; in assay [3] it was more than 0.1 µM; in assay [4] it was more than 0.5 µM.

`OCc1ccc(-n2cc(-c3ccnc4[nH]cnc34)cn2)nc1` [Example 1083, (6-(4-(3H-imidazo[4,5-b]pyridin-7-yl)-1H-pyrazol-1-yl)pyridin-3-yl)methanol]: the IC50 in assay [1] was more than 1 µM; in assay [2] it was more than 0.5 µM; in assay [3] it was more than 0.5 µM; in assay [4], less than 0.5 µM.

`N#CCNC(=O)n1cc(-c2ccnc3[nH]c(=O)[nH]c23)cn1` [Example 1035, N-(cyanomethyl)-4-(2,3-dihydro-2-oxo-1H-imidazo[4,5-b]pyridin-7-yl)-1H-pyrazole-1-carboxamide hydrochloride]: the IC50 in assay [1], in assay [2], in assay [3] and in assay [4] was more than 10 µM in each case.

As to `CS(=O)(=O)N1CC(C(C#N)c2ccc(-n3cc(-c4ccnc5[nH]cnc45)cn3)nc2)C1` (stereo not drawn) [Example 1115, 2-(6-(4-(3H-imidazo[4,5-b]pyridin-7-yl)-1H-pyrazol-1-yl)pyridin-3-yl)-2-(1-(methylsulfonyl)azetidin-3-yl)acetonitrile], the IC50 in assay [1] is more than 1 µM; in assay [2], more than 0.5 µM; in assay [3] it was more than 0.5 µM; in assay [4], more than 0.5 µM.

As for `O=C(NCC(F)(F)F)n1ccc(-c2ccnc3[nH]c(=O)[nH]c23)c1` [Example 1028, N-(2,2,2-trifluoroethyl)-3-(2,3-dihydro-2-oxo-1H-imidazo[4,5-b]pyridin-7-yl)-1H-pyrrole-1-carboxamide], the IC50 in assay [1], in assay [2], in assay [3] and in assay [4] was more than 1 µM throughout.

Take `O=C(CC(c1ccc(-n2cc(-c3ccnc4[nH]cnc34)cn2)nc1)C(F)(F)F)N1CCOCC1` (stereo not drawn) [Example 1249, 3-(6-(4-(3H-imidazo[4,5-b]pyridin-7-yl)-1H-pyrazol-1-yl)pyridin-3-yl)-4,4,4-trifluoro-1-morpholinobutan-1-one]: the IC50 in assay [1] is more than 1 µM; in assay [2], more than 0.5 µM; in assay [3], more than 0.5 µM; in assay [4] it was more than 0.5 µM.

With `CS(=O)(=O)N1CCC(NC(=O)N2CCN(c3ccnc4[nH]c(=O)[nH]c34)CC2)CC1` [Example 1016, N-(1-(methylsulfonyl)piperidin-4-yl)-4-(2-oxo-2,3-dihydro-1H-imidazo[4,5-b]pyridin-7-yl)piperazine-1-carboxamide], the IC50 in assay [1], in assay [2], in assay [3] and in assay [4] was more than 10 µM throughout.

In the case of `CS(=O)(=O)CC(Cc1ccc(-n2cc(-c3ccnc4[nH]cnc34)cn2)nc1)C(F)(F)F` (stereo not drawn) [Example 1194, 7-(1-(5-(3,3,3-trifluoro-2-((methylsulfonyl)methyl)propyl)pyridin-2-yl)-1H-pyrazol-4-yl)-3H-imidazo[4,5-b]pyridine], the IC50 in assay [1] is more than 1 µM; in assay [2], more than 0.5 µM; in assay [3], more than 0.5 µM; in assay [4], more than 0.5 µM.
